Test results published in PubChem BioAssay AID1745844 (Carcinogenic Potency Database (CPDB), 2022).
Active and inactive are the calls of the source. No rule for the calls is given here.

Tested on: rodent lifetime carcinogenesis bioassay, tumor incidence TD50
Assay: carcinogenic potency in animals, long-term in vivo studies, CPDB compilation (AID 1745844)

With `O=C(CCl)c1ccccc1` the TD50 (mouse, strain B6C3F1, females, inhaled, site: any site (literature study), lesion: several types, types named in the paper, dosed 103 weeks, study length 105 weeks) was 4.31 mg/kg/day (inactive), the TD50 (mouse, strain B6C3F1, females, inhaled, site: lung, lesion: alveolar/bronchiolar adenoma + alveolar/bronchiolar carcinoma, dosed 103 weeks, study length 105 weeks) was 33.4 mg/kg/day and the TD50 (mouse, strain B6C3F1, males, inhaled, site: any site (literature study), lesion: several types, types named in the paper, dosed 103 weeks, study length 106 weeks) was 2.69 mg/kg/day (inactive). For the same molecule, the TD50 (mouse, strain B6C3F1, males, inhaled, site: liver, lesion: hepatocellular adenoma + hepatocellular carcinoma + neoplastic nodule, dosed 103 weeks, study length 106 weeks) was 5.24 mg/kg/day, the TD50 (mouse, strain B6C3F1, males, inhaled, site: lung, lesion: alveolar/bronchiolar adenoma + alveolar/bronchiolar carcinoma, dosed 103 weeks, study length 106 weeks) was 10.4 mg/kg/day and the TD50 (rat, strain Fischer 344, females, inhaled, site: any site (literature study), lesion: several types, types named in the paper, dosed 103 weeks, study length 105 weeks) was 0.859 mg/kg/day. It also gave a TD50 (rat, strain Fischer 344, females, inhaled, site: mammary gland, lesion: adenocarcinoma + adenoma + fibroadenoma, dosed 103 weeks, study length 105 weeks) of 0.224 mg/kg/day, a TD50 (rat, strain Fischer 344, females, inhaled, site: mammary gland, lesion: adenoma + fibroadenoma, dosed 103 weeks, study length 105 weeks) of 0.208 mg/kg/day and a TD50 (rat, strain Fischer 344, females, inhaled, site: mammary gland, lesion: fibroadenoma, dosed 103 weeks, study length 105 weeks) of 0.211 mg/kg/day. The carcinogen call (rat, strain Fischer 344, males, inhaled, site: any site (literature study), lesion: several types, types named in the paper, dosed 103 weeks, study length 105 weeks) was “negative (inactive)”.
With `Cc1cc2ncccc2c2nc(N)n(C)c12` the TD50 (mouse, strain C57BL/6NCrj, females, in feed, site: cecum, lesion: adenocarcinoma, dosed 85 weeks, study length 85 weeks) was 50 mg/kg/day, the TD50 (mouse, strain C57BL/6NCrj, females, in feed, site: colon, lesion: adenocarcinoma, dosed 85 weeks, study length 85 weeks) was 92.8 mg/kg/day and the TD50 (mouse, strain C57BL/6NCrj, females, in feed, site: large intestine, lesion: adenocarcinoma, dosed 85 weeks, study length 85 weeks) was 32.3 mg/kg/day. For the same molecule, the TD50 (mouse, strain C57BL/6NCrj, females, in feed, site: liver, lesion: fibrosarcoma, dosed 85 weeks, study length 85 weeks) was 20.7 mg/kg/day, the TD50 (mouse, strain C57BL/6NCrj, females, in feed, site: liver, lesion: hepatocellular adenoma, dosed 85 weeks, study length 85 weeks) was 80 mg/kg/day and the TD50 (mouse, strain C57BL/6NCrj, females, in feed, site: liver, lesion: hepatocellular carcinoma, dosed 85 weeks, study length 85 weeks) was 62.1 mg/kg/day. The TD50 (mouse, strain CDF1, females, in feed, site: forestomach, lesion: several types, types named in the paper, dosed 91 weeks, study length 91 weeks) was 10.7 mg/kg/day, the TD50 (mouse, strain CDF1, females, in feed, site: forestomach, lesion: squamous-cell carcinoma, dosed 91 weeks, study length 91 weeks) was 24.5 mg/kg/day and the TD50 (mouse, strain CDF1, females, in feed, site: liver, lesion: hepatocellular carcinoma, dosed 91 weeks, study length 91 weeks) was 65.6 mg/kg/day. For the same molecule, the TD50 (mouse, strain CDF1, females, in feed, site: liver, lesion: several types, types named in the paper, dosed 91 weeks, study length 91 weeks) was 27.1 mg/kg/day, the TD50 (mouse, strain CDF1, females, in feed, site: lung, lesion: several types, types named in the paper, dosed 91 weeks, study length 91 weeks) was 25.1 mg/kg/day (inactive) and the TD50 (mouse, strain CDF1, males, in feed, site: forestomach, lesion: several types, types named in the paper, dosed 91 weeks, study length 91 weeks) was 14.5 mg/kg/day. For the same molecule, the TD50 (mouse, strain CDF1, males, in feed, site: forestomach, lesion: squamous-cell carcinoma, dosed 91 weeks, study length 91 weeks) was 22.4 mg/kg/day and the TD50 (mouse, strain CDF1, males, in feed, site: lung, lesion: several types, types named in the paper, dosed 91 weeks, study length 91 weeks) was 148 mg/kg/day (inactive).
Work on `ClCC(Cl)Cl` yielded a TD50 (mouse, strain B6C3F1, females, by gavage, site: adrenal gland + liver, lesion: pheochromocytoma + hepatocellular carcinoma, dosed 78 weeks, study length 90 weeks) of 47.6 mg/kg/day, a TD50 (mouse, strain B6C3F1, females, by gavage, site: adrenal gland, lesion: pheochromocytoma, dosed 78 weeks, study length 90 weeks) of 248 mg/kg/day and a TD50 (mouse, strain B6C3F1, females, by gavage, site: any site (literature study), lesion: several types, types named in the paper, dosed 78 weeks, study length 90 weeks) of 52.9 mg/kg/day. For the same molecule, the TD50 (mouse, strain B6C3F1, females, by gavage, site: liver, lesion: hepatocellular adenoma + hepatocellular carcinoma + neoplastic nodule, dosed 78 weeks, study length 90 weeks) was 47.6 mg/kg/day, the TD50 (mouse, strain B6C3F1, females, by gavage, site: liver, lesion: hepatocellular carcinoma, dosed 78 weeks, study length 90 weeks) was 47.6 mg/kg/day and the TD50 (mouse, strain B6C3F1, females, by gavage, site: lung, lesion: alveolar/bronchiolar adenoma + alveolar/bronchiolar carcinoma, dosed 78 weeks, study length 90 weeks) was 787 mg/kg/day. The TD50 (mouse, strain B6C3F1, males, by gavage, site: adrenal gland + liver, lesion: pheochromocytoma + hepatocellular carcinoma, dosed 78 weeks, study length 90 weeks) was 65 mg/kg/day, the TD50 (mouse, strain B6C3F1, males, by gavage, site: adrenal gland, lesion: pheochromocytoma, dosed 78 weeks, study length 90 weeks) was 588 mg/kg/day and the TD50 (mouse, strain B6C3F1, males, by gavage, site: any site (literature study), lesion: several types, types named in the paper, dosed 78 weeks, study length 90 weeks) was 79.5 mg/kg/day. For the same molecule, the TD50 (mouse, strain B6C3F1, males, by gavage, site: liver, lesion: hepatocellular adenoma + hepatocellular carcinoma + neoplastic nodule, dosed 78 weeks, study length 90 weeks) was 65 mg/kg/day, the TD50 (mouse, strain B6C3F1, males, by gavage, site: liver, lesion: hepatocellular carcinoma, dosed 78 weeks, study length 90 weeks) was 65 mg/kg/day and the TD50 (mouse, strain B6C3F1, males, by gavage, site: lung, lesion: alveolar/bronchiolar adenoma + alveolar/bronchiolar carcinoma, dosed 78 weeks, study length 90 weeks) was 1560 mg/kg/day. For the same molecule, the carcinogen call (rat, strain Osborne-Mendel, females, by gavage, site: any site (literature study), lesion: several types, types named in the paper, dosed 78 weeks, study length 112 weeks) was “negative (inactive)”, the TD50 (rat, strain Osborne-Mendel, females, by gavage, site: liver, lesion: hepatocellular adenoma + hepatocellular carcinoma + neoplastic nodule, dosed 78 weeks, study length 112 weeks) was 771 mg/kg/day and the carcinogen call (rat, strain Osborne-Mendel, males, by gavage, site: any site (literature study), lesion: several types, types named in the paper, dosed 78 weeks, study length 112 weeks) was “negative (inactive)”.
With `CC[C@H]1OC(=O)[C@H](C)[C@@H](O[C@H]2C[C@@](C)(OC)[C@@H](O)[C@H](C)O2)[C@H](C)[C@@H](O[C@@H]2O[C@H](C)C[C@H](N(C)C)[C@H]2O)[C@](C)(O)C[C@@H](C)C(=O)[C@H](C)[C@@H](O)[C@]1(C)O` the carcinogen call (mouse, strain B6C3F1, females, in feed, site: any site (literature study), lesion: several types, types named in the paper, dosed 103 weeks, study length 104 weeks) was “negative (inactive)”, the carcinogen call (mouse, strain B6C3F1, males, in feed, site: any site (literature study), lesion: several types, types named in the paper, dosed 103 weeks, study length 104 weeks) was “negative (inactive)” and the carcinogen call (rat, strain Fischer 344, females, in feed, site: any site (literature study), lesion: several types, types named in the paper, dosed 103 weeks, study length 104 weeks) was “negative (inactive)”. For the same molecule, the TD50 (rat, strain Fischer 344, females, in feed, site: liver, lesion: hepatocellular adenoma + hepatocellular carcinoma + neoplastic nodule, dosed 103 weeks, study length 104 weeks) was 5850 mg/kg/day, the TD50 (rat, strain Fischer 344, males, in feed, site: any site (literature study), lesion: several types, types named in the paper, dosed 103 weeks, study length 104 weeks) was 2020 mg/kg/day (inactive) and the TD50 (rat, strain Fischer 344, males, in feed, site: liver, lesion: hepatocellular adenoma + hepatocellular carcinoma + neoplastic nodule, dosed 103 weeks, study length 104 weeks) was 3950 mg/kg/day.
For `CNc1ncnc2nc[nH]c12`, the carcinogen call (mouse, strain Swiss CD-1, females, in drinking water, site: liver, lesion: hepatocellular tumor, dosed 26 weeks, study length 104 weeks) was “negative (inactive)”, the carcinogen call (mouse, strain Swiss CD-1, females, in drinking water, site: lung, lesion: one or several types, types not named, dosed 26 weeks, study length 104 weeks) was “negative (inactive)” and the carcinogen call (mouse, strain Swiss CD-1, males, in drinking water, site: liver, lesion: hepatocellular tumor, dosed 26 weeks, study length 106 weeks) was “negative (inactive)”. The carcinogen call (mouse, strain Swiss CD-1, males, in drinking water, site: lung, lesion: one or several types, types not named, dosed 26 weeks, study length 106 weeks) was “negative (inactive)”.
In the case of `ClC1(Cl)C2(Cl)C3(Cl)C4(Cl)C(Cl)(Cl)C5(Cl)C3(Cl)C1(Cl)C5(Cl)C24Cl` (stereo not drawn), the TD50 (mouse, strain B6AKF1, females, oral dosing, site: any site (literature study), lesion: several types, types named in the paper, dosed 68 weeks, study length 68 weeks) is reported as 1.26 mg/kg/day, the TD50 (mouse, strain B6AKF1, females, oral dosing, site: liver, lesion: hepatoma, dosed 68 weeks, study length 68 weeks) is reported as 1.1 mg/kg/day and the TD50 (mouse, strain B6AKF1, males, oral dosing, site: any site (literature study), lesion: several types, types named in the paper, dosed 58 weeks, study length 58 weeks) is reported as 3.32 mg/kg/day. It also gave a TD50 (mouse, strain B6AKF1, males, oral dosing, site: liver, lesion: hepatoma, dosed 58 weeks, study length 58 weeks) of 2.13 mg/kg/day, a TD50 (mouse, strain B6C3F1, females, oral dosing, site: any site (literature study), lesion: several types, types named in the paper, dosed 69 weeks, study length 69 weeks) of 1.6 mg/kg/day and a TD50 (mouse, strain B6C3F1, females, oral dosing, site: liver, lesion: hepatoma, dosed 69 weeks, study length 69 weeks) of 1.6 mg/kg/day. The TD50 (mouse, strain B6C3F1, males, oral dosing, site: any site (literature study), lesion: several types, types named in the paper, dosed 58 weeks, study length 58 weeks) was 1.5 mg/kg/day, the TD50 (mouse, strain B6C3F1, males, oral dosing, site: liver, lesion: hepatoma, dosed 58 weeks, study length 58 weeks) was 1.83 mg/kg/day and the TD50 (mouse, strain B6C3F1, males, oral dosing, site: liver, lesion: several types, types named in the paper, dosed 58 weeks, study length 58 weeks) was 1.5 mg/kg/day. It also gave a TD50 (rat, strain Fischer 344, females, in feed, site: any site (literature study), lesion: several types, types named in the paper, dosed 104 weeks, study length 105 weeks) of 21.9 mg/kg/day, a TD50 (rat, strain Fischer 344, females, in feed, site: any site (literature study), lesion: several types, types named in the paper, dosed 104 weeks, study length 107 weeks) of 22.4 mg/kg/day and a TD50 (rat, strain Fischer 344, females, in feed, site: liver + multiple organs + spleen, lesion: hepatocellular carcinoma + neoplastic nodule + mononuclear-cell leukemia, dosed 104 weeks, study length 105 weeks) of 3.34 mg/kg/day. It also gave a TD50 (rat, strain Fischer 344, females, in feed, site: liver, lesion: hepatocellular adenoma + hepatocellular carcinoma + neoplastic nodule, dosed 104 weeks, study length 105 weeks) of 3.17 mg/kg/day, a TD50 (rat, strain Fischer 344, females, in feed, site: liver, lesion: hepatocellular adenoma + hepatocellular carcinoma + neoplastic nodule, dosed 104 weeks, study length 107 weeks) of 16.5 mg/kg/day and a TD50 (rat, strain Fischer 344, females, in feed, site: liver, lesion: hepatocellular carcinoma + neoplastic nodule, dosed 104 weeks, study length 105 weeks) of 3.17 mg/kg/day. It also gave a TD50 (rat, strain Fischer 344, females, in feed, site: liver, lesion: neoplastic nodule, dosed 104 weeks, study length 105 weeks) of 3.22 mg/kg/day, a TD50 (rat, strain Fischer 344, females, in feed, site: multiple organs + spleen, lesion: mononuclear-cell leukemia, dosed 104 weeks, study length 105 weeks) of 15.7 mg/kg/day and a TD50 (rat, strain Fischer 344, females, in feed, site: multiple organs + spleen, lesion: mononuclear-cell leukemia, dosed 104 weeks, study length 107 weeks) of 5.97 mg/kg/day. For the same molecule, the TD50 (rat, strain Fischer 344, males, in feed, site: adrenal gland + kidney/pelvis + liver, lesion: pheochromocytoma + pheochromocytoma, malignant + transitional-cell papilloma + hepatocellular carcinoma + neoplastic nodule, dosed 104 weeks, study length 104 weeks) was 0.669 mg/kg/day, the TD50 (rat, strain Fischer 344, males, in feed, site: adrenal gland, lesion: pheochromocytoma + pheochromocytoma, malignant, dosed 104 weeks, study length 104 weeks) was 1.43 mg/kg/day and the TD50 (rat, strain Fischer 344, males, in feed, site: any site (literature study), lesion: several types, types named in the paper, dosed 104 weeks, study length 104 weeks) was 0.618 mg/kg/day. The TD50 (rat, strain Fischer 344, males, in feed, site: kidney/pelvis, lesion: transitional-cell papilloma, dosed 104 weeks, study length 104 weeks) was 13.5 mg/kg/day, the TD50 (rat, strain Fischer 344, males, in feed, site: liver, lesion: hepatocellular adenoma + hepatocellular carcinoma + neoplastic nodule, dosed 104 weeks, study length 104 weeks) was 0.825 mg/kg/day and the TD50 (rat, strain Fischer 344, males, in feed, site: liver, lesion: hepatocellular carcinoma + neoplastic nodule, dosed 104 weeks, study length 104 weeks) was 0.825 mg/kg/day. The TD50 (rat, strain Fischer 344, males, in feed, site: liver, lesion: hepatocellular carcinoma, dosed 104 weeks, study length 104 weeks) was 7.09 mg/kg/day, the TD50 (rat, strain Fischer 344, males, in feed, site: liver, lesion: neoplastic nodule, dosed 104 weeks, study length 104 weeks) was 0.87 mg/kg/day and the TD50 (rat, strain Fischer 344, males, in feed, site: testis, lesion: interstitial-cell tumor, dosed 104 weeks, study length 104 weeks) was 0.708 mg/kg/day. It also gave a TD50 (rat, strain Fischer 344, males, in feed, site: thyroid gland, lesion: follicular-cell adenoma + follicular-cell carcinoma, dosed 104 weeks, study length 104 weeks) of 10.4 mg/kg/day and a TD50 (rat, strain Fischer 344, males, in feed, site: thyroid gland, lesion: follicular-cell adenoma, dosed 104 weeks, study length 104 weeks) of 12.7 mg/kg/day.
